Results published in patent US20230017045A1, “PYRIDINE AND PYRIMIDINE CARBOXYLATE HERBICIDES AND METHODS OF USE THEREOF” (Dow AgroSciences LLC, priority 2017, published 2023).

What follows are compounds tested on test plant species (assay: Post-emergent herbicidal activity test (greenhouse, foliar spray, visual growth reduction)). Conditions: post-emergence, 336 h, ALOMY: blackgrass (Alopecurus myosuroides), 140 g ai/ha, 14 days after application, read-out: Visual Growth Reduction (%) 14 Days After Application, ALOMY.
Format: in vivo
Protocol: Post-emergent Test: Seeds or nutlets of the desired test plant species were planted in Sun Gro Metro-Mix® 360 planting mixture, which typically has a pH of 6.0 to 6.8 and an organic matter content of about 30 percent, in plastic pots with a surface area of 64 square centimeters. In some aspects, to ensure good germination and healthy plants, a fungicide treatment and/or other chemical or physical treatment was applied. The plants were grown for 7-21 d in a greenhouse with an approximate 15 h photoperiod which was maintained at 23-29° C. during the day and 22-28° C. during the night. Nutrients and water were added on a regular basis and supplemental lighting was provided with overhead metal halide 1000-Watt lamps as necessary. Plants were used for testing when they reached the first or second true leaf stage. A weighed amount, determined by the highest rate to be tested, of each test compound was placed in a 25 mL glass vial and was dissolved in 4 mL of a 97:3 v/v mixture of acetone and DMSO to obtain concentrated stock solutions. […] The concentrated stock solutions obtained were diluted with 20 mL of an aqueous mixture containing acetone, water, isopropyl alcohol, DMSO, […] crop oil concentrate, and X-77 surfactant in a 48.5:39:10:1.5:1.0:0.02 v/v ratio to obtain spray solutions containing the application rate. Compound requirements are based upon a 12 mL application volume at a rate of 187 liters per hectare (L/ha). Formulated compounds were applied to the plant material with an overhead Mandel track sprayer equipped with […] nozzles calibrated to deliver 187 L/ha over an application area of 0.64 square meters at a spray height of 18 inches (43 cm) above the average plant canopy height. Control plants were sprayed in the same manner with the solvent blank. The treated plants and control plants were placed in a greenhouse as described above and watered by subirrigation to prevent wash-off of the test compounds. After 14 d, the condition of the test plants as compared with that of the nontreated and control plants was determined visually and scored on a scale of 0 to 100 percent where 0 corresponds to no injury and 100 corresponds to complete control. In the reporting of the results, Table A: Percent Growth Reduction Conversion Table was used.
For COC(=O)c1nc(-c2ccc(OC)cc2Cl)ccc1Cl [F35, Methyl 3-chloro-6-(2-chloro-4-methoxyphenyl) picolinate], the pest or weed control at 140 g/ha was 0 to 29%.
For COC(=O)c1nc(-c2ccc(OC(F)F)cc2)c(F)cc1Cl [F165, Methyl 3-chloro-6-(4-(difluoromethoxy)phenyl)-5-fluoropicolinate], the pest or weed control at 140 g/ha was 0 to 29%.

Same assay, conditions: post-emergence, 336 h, AMARE: redroot pigweed (Amaranthus retroflexus), 140 g ai/ha, 14 days after application, read-out: Visual Growth Reduction (%) 14 Days After Application, AMARE
For COC(=O)c1nc(-c2ccc(OC)cc2Cl)ccc1Cl [F35, Methyl 3-chloro-6-(2-chloro-4-methoxyphenyl) picolinate], the pest or weed control at 140 g/ha was 30 to 44%.
Work on COC(=O)c1nc(-c2ccc(OC(F)F)cc2)c(F)cc1Cl [F165, Methyl 3-chloro-6-(4-(difluoromethoxy)phenyl)-5-fluoropicolinate] yielded a pest or weed control at 140 g/ha of 85 to 94%.

Same assay, conditions: post-emergence, 336 h, AVEFA: wild oat (Avena fatua), 140 g ai/ha, 14 days after application, read-out: Visual Growth Reduction (%) 14 Days After Application, AVEFA
Compound COC(=O)c1nc(-c2ccc(OC)cc2Cl)ccc1Cl [F35, Methyl 3-chloro-6-(2-chloro-4-methoxyphenyl) picolinate] has a pest or weed control at 140 g/ha of 0 to 29%.
COC(=O)c1nc(-c2ccc(OC(F)F)cc2)c(F)cc1Cl [F165, Methyl 3-chloro-6-(4-(difluoromethoxy)phenyl)-5-fluoropicolinate] was tested, and the pest or weed control at 140 g/ha was 0 to 29%.

Same assay, conditions: post-emergence, 336 h, CHEAL: lambsquarters (Chenopodium album), 140 g ai/ha, 14 days after application, read-out: Visual Growth Reduction (%) 14 Days After Application, CHEAL
For COC(=O)c1nc(-c2ccc(OC)cc2Cl)ccc1Cl [F35, Methyl 3-chloro-6-(2-chloro-4-methoxyphenyl) picolinate], the pest or weed control at 140 g/ha was 0 to 29%.
With COC(=O)c1nc(-c2ccc(OC(F)F)cc2)c(F)cc1Cl [F165, Methyl 3-chloro-6-(4-(difluoromethoxy)phenyl)-5-fluoropicolinate] the pest or weed control at 140 g/ha was 45 to 59%.

Same assay, conditions: post-emergence, 336 h, CIRAR: canada thistle (Cirsium arvense), 140 g ai/ha, 14 days after application, read-out: Visual Growth Reduction (%) 14 Days After Application, CIRAR
In the case of COC(=O)c1nc(-c2ccc(OC)cc2Cl)ccc1Cl [F35, Methyl 3-chloro-6-(2-chloro-4-methoxyphenyl) picolinate], the pest or weed control at 140 g/ha was 0 to 29%.
Compound COC(=O)c1nc(-c2ccc(OC(F)F)cc2)c(F)cc1Cl [F165, Methyl 3-chloro-6-(4-(difluoromethoxy)phenyl)-5-fluoropicolinate] has a pest or weed control at 140 g/ha of 60 to 74%.

Same assay, conditions: post-emergence, 336 h, CYPES: yellow nutsedge (Cyperus esculentus), 140 g ai/ha, 14 days after application, read-out: Visual Growth Reduction (%) 14 Days After Application, CYPES
COC(=O)c1nc(-c2ccc(OC)cc2Cl)ccc1Cl [F35, Methyl 3-chloro-6-(2-chloro-4-methoxyphenyl) picolinate] showed a pest or weed control at 140 g/ha of 0 to 29%.
With COC(=O)c1nc(-c2ccc(OC(F)F)cc2)c(F)cc1Cl [F165, Methyl 3-chloro-6-(4-(difluoromethoxy)phenyl)-5-fluoropicolinate] the pest or weed control at 140 g/ha was 0 to 29%.

Same assay, conditions: post-emergence, 336 h, DIGSA: crabgrass (Digitaria sanguinalis), 140 g ai/ha, 14 days after application, read-out: Visual Growth Reduction (%) 14 Days After Application, DIGSA
COC(=O)c1nc(-c2ccc(OC)cc2Cl)ccc1Cl [F35, Methyl 3-chloro-6-(2-chloro-4-methoxyphenyl) picolinate] gave a pest or weed control at 140 g/ha of 0 to 29%.
COC(=O)c1nc(-c2ccc(OC(F)F)cc2)c(F)cc1Cl [F165, Methyl 3-chloro-6-(4-(difluoromethoxy)phenyl)-5-fluoropicolinate] gave a pest or weed control at 140 g/ha of 75 to 84%.

Same assay, conditions: post-emergence, 336 h, ECHCG: barnyardgrass (Echinochloa crus-galli), 140 g ai/ha, 14 days after application, read-out: Visual Growth Reduction (%) 14 Days After Application, ECHCG
For COC(=O)c1nc(-c2ccc(OC)cc2Cl)ccc1Cl [F35, Methyl 3-chloro-6-(2-chloro-4-methoxyphenyl) picolinate], the pest or weed control at 140 g/ha was 0 to 29%.
For COC(=O)c1nc(-c2ccc(OC(F)F)cc2)c(F)cc1Cl [F165, Methyl 3-chloro-6-(4-(difluoromethoxy)phenyl)-5-fluoropicolinate], the pest or weed control at 140 g/ha was 60 to 74%.

Same assay, conditions: post-emergence, 336 h, IPOHE: ivy-leaf morning glory (Ipomoea hederacea), 140 g ai/ha, 14 days after application, read-out: Visual Growth Reduction (%) 14 Days After Application, IPOHE
COC(=O)c1nc(-c2ccc(OC)cc2Cl)ccc1Cl [F35, Methyl 3-chloro-6-(2-chloro-4-methoxyphenyl) picolinate] showed a pest or weed control at 140 g/ha of 0 to 29%.
Work on COC(=O)c1nc(-c2ccc(OC(F)F)cc2)c(F)cc1Cl [F165, Methyl 3-chloro-6-(4-(difluoromethoxy)phenyl)-5-fluoropicolinate] yielded a pest or weed control at 140 g/ha of 75 to 84%.

Same assay, conditions: post-emergence, 336 h, KCHSC: kochia (Bassia scoparia), 140 g ai/ha, 14 days after application, read-out: Visual Growth Reduction (%) 14 Days After Application, KCHSC
Work on COC(=O)c1nc(-c2ccc(OC)cc2Cl)ccc1Cl [F35, Methyl 3-chloro-6-(2-chloro-4-methoxyphenyl) picolinate] yielded a pest or weed control at 140 g/ha of 0 to 29%.
COC(=O)c1nc(-c2ccc(OC(F)F)cc2)c(F)cc1Cl [F165, Methyl 3-chloro-6-(4-(difluoromethoxy)phenyl)-5-fluoropicolinate] was tested, and the pest or weed control at 140 g/ha was 30 to 44%.

Same assay, conditions: post-emergence, 336 h, ORYSA: rice (Oryza sativa), 140 g ai/ha, 14 days after application, read-out: Visual Growth Reduction (%) 14 Days After Application, ORYSA
With COC(=O)c1nc(-c2ccc(OC)cc2Cl)ccc1Cl [F35, Methyl 3-chloro-6-(2-chloro-4-methoxyphenyl) picolinate] the pest or weed control at 140 g/ha was 0 to 29%.
Compound COC(=O)c1nc(-c2ccc(OC(F)F)cc2)c(F)cc1Cl [F165, Methyl 3-chloro-6-(4-(difluoromethoxy)phenyl)-5-fluoropicolinate] has a pest or weed control at 140 g/ha of 0 to 29%.

Same assay, conditions: post-emergence, 336 h, SETFA: giant foxtail (Setaria faberi), 140 g ai/ha, 14 days after application, read-out: Visual Growth Reduction (%) 14 Days After Application, SETFA
COC(=O)c1nc(-c2ccc(OC)cc2Cl)ccc1Cl [F35, Methyl 3-chloro-6-(2-chloro-4-methoxyphenyl) picolinate] showed a pest or weed control at 140 g/ha of 0 to 29%.
With COC(=O)c1nc(-c2ccc(OC(F)F)cc2)c(F)cc1Cl [F165, Methyl 3-chloro-6-(4-(difluoromethoxy)phenyl)-5-fluoropicolinate] the pest or weed control at 140 g/ha was 75 to 84%.

Same assay, conditions: post-emergence, 336 h, SORVU: grain sorghum (Sorghum vulgare), 140 g ai/ha, 14 days after application, read-out: Visual Growth Reduction (%) 14 Days After Application, SORVU
In the case of COC(=O)c1nc(-c2ccc(OC)cc2Cl)ccc1Cl [F35, Methyl 3-chloro-6-(2-chloro-4-methoxyphenyl) picolinate], the pest or weed control at 140 g/ha was 0 to 29%.
COC(=O)c1nc(-c2ccc(OC(F)F)cc2)c(F)cc1Cl [F165, Methyl 3-chloro-6-(4-(difluoromethoxy)phenyl)-5-fluoropicolinate] gave a pest or weed control at 140 g/ha of 85 to 94%.

Same assay, conditions: post-emergence, 336 h, STEME: common chickweed (Stellaria media), 140 g ai/ha, 14 days after application, read-out: Visual Growth Reduction (%) 14 Days After Application, STEME
COC(=O)c1nc(-c2ccc(OC)cc2Cl)ccc1Cl [F35, Methyl 3-chloro-6-(2-chloro-4-methoxyphenyl) picolinate] showed a pest or weed control at 140 g/ha of 0 to 29%.
Compound COC(=O)c1nc(-c2ccc(OC(F)F)cc2)c(F)cc1Cl [F165, Methyl 3-chloro-6-(4-(difluoromethoxy)phenyl)-5-fluoropicolinate] has a pest or weed control at 140 g/ha of 0 to 29%.

Same assay, conditions: post-emergence, 336 h, TRZAS: wheat, spring (Triticum aestivum), 140 g ai/ha, 14 days after application, read-out: Visual Growth Reduction (%) 14 Days After Application, TRZAS
For COC(=O)c1nc(-c2ccc(OC)cc2Cl)ccc1Cl [F35, Methyl 3-chloro-6-(2-chloro-4-methoxyphenyl) picolinate], the pest or weed control at 140 g/ha was 0 to 29%.
COC(=O)c1nc(-c2ccc(OC(F)F)cc2)c(F)cc1Cl [F165, Methyl 3-chloro-6-(4-(difluoromethoxy)phenyl)-5-fluoropicolinate] showed a pest or weed control at 140 g/ha of 0 to 29%.
